Measured values taken from the NIST ThermoML archive (doi:10.1021/je101264r).
± gives the expanded uncertainty stated by the source.

Test: mn = molality of the nth substance listed, in mol/kg
Conditions: 298.15 K, 101 kPa, Liquid, rubidium clock sound velocity meter

## Nc1ncnc2c1ncn2[C@@H]1O[C@H](CO)[C@@H](O)[C@H]1O [β-adenosine] + O
m1 = 0.01701
  speed of sound: 1497.8 ± 0.03 m/s
m1 = 0.01736
  speed of sound: 1497.8 ± 0.03 m/s
m1 = 0.01799
  speed of sound: 1497.8 ± 0.03 m/s
m1 = 0.01851
  speed of sound: 1497.9 ± 0.03 m/s
m1 = 0.01911
  speed of sound: 1497.9 ± 0.03 m/s
m1 = 0.0195
  speed of sound: 1497.9 ± 0.03 m/s
m1 = 0.02001
  speed of sound: 1498 ± 0.03 m/s
m1 = 0.02054
  speed of sound: 1498 ± 0.03 m/s
